From patent US12673935B2, “Pyrimidine derivative, and preparation method therefor and use thereof” (CGENETECH (SUZHOU, CHINA) CO., LTD., priority 2020, dated 2026)

Legend:
[1] = molecular target: CDK2/human cyclin E (Homo sapiens, UniProt P24941); test: Determination of activity of CDK2 kinase (Caliper mobility shift); format: biochemical; conditions: 10 μM ATP, 0.1 nM enzyme, 25° C. 6 hours; read-out: CDK2/CycE IC50
Method: The activity of CDK2 kinase in vitro was tested by the following method: • Final buffer: • 100 mM 4-hydroxyethyl piperazine ethanesulfonic acid, pH 7.5; • 0.1% bovine serum albumin; • 0.01% Triton X-100; • 1 mM dithiothreitol; • 5 mM magnesium chloride; • 10 μM sodium orthovanadate; • 10 μM sodium P-glycerophosphate; • 10 μM ATP; • 1% DMSO (from the compound to be tested); • Substrate Peptide: 1 μM FAM-[…]-OH, wherein FAM is 5-carboxyfluorescein; • 0.1 nM CDK2/human cyclin E.
(§1) 5 μL of buffer, 0.1 μL of compound to be tested (DMSO, 100 times the highest concentration) and 5 μL of substrate peptide buffer were added to a 384-well plate. The reaction was terminated with EDTA after culturing at 25° C. for 6 hours. Electrophoresis reading was started (Caliper LabChip® 3000 Drug Discovery System, blue laser (480 nm) for excitation, green CCD (520 nm) for detection of CCD2).

[2] = tested on: MDA-MB-468 cells; test: Determination of activity of MDA-MB-468 cells (CellTiter-Glo); format: cell-based; conditions: Homo sapiens, MDA-MB-468, 120 h, 5 days culture
Method: • MDA-MB-468 (ATCC No. HTB-132); • RPMI 1640 (Invitrogen No. 22400089); • FBS (Hyclone No. SV30087.03); • Pen Strep (Hyclone No. SV30010); • CellTiter-Glo (Promega No. G7573); • Medium: 89% RPMI 1640, 10% FBS and 1% Pen Strep;
300 MDA-MB-468 cells and 50 μL of medium were inoculated in a plate with 100 μL of PBS buffer added, which was then cultured for 24 hours at 37° C./5% CO2, then 250 nL of samples, which were taken from the compounds to be tested at ten test points and diluted with four times DMSO, were added to the plate wells and cultured for 5 days at 37° C./5% CO2, then 25 μL of CellTiter-Glo was added to each plate well, followed by centrifugation by rotating (1000 rpm) for 15 seconds, and vibration mixing (400 rpm) for 10 minutes, the microplate reader Envision was started to read.

[3] = molecular target: T1, CDK6/human cyclin D3 (Homo sapiens, UniProt Q00534); test: Determination of activity of CDK6 kinase (Caliper mobility shift); format: biochemical; conditions: 300 μM ATP, 2 nM enzyme, 25° C. 3 hours; read-out: CDK6/CycD3 IC50
T1 construct: purchased Carna 04-107
Method: The activity of CDK6 kinase in vitro was tested by the following method: • 2 nM CDK6/human cyclin D3 (Carna, No. 04-107) • Final buffer: • 100 mM 4-hydroxyethyl piperazine ethanesulfonic acid, pH 7.5; • 0.1% bovine serum albumin; • 0.01% Triton X-100; • 1 mM dithiothreitol; • 5 mM magnesium chloride; • 10 μM sodium orthovanadate; • 10 μM sodium P-glycerophosphate; • 300 μM ATP; • 1% DMSO (from the compound to be tested); • Substrate peptide: Dyrktide;
as §1, with “3” for “6”

[4] = molecular target: CDK4/human cyclin D1 (Homo sapiens, UniProt P11802); test: Determination of activity of CDK4 kinase (Caliper mobility shift); format: biochemical; conditions: 25 μM ATP, 5 nM enzyme, 25° C. 6 hours; read-out: CDK4/CycD1 IC50
Method: The activity of CDK4 kinase in vitro was tested by the following method: • Final buffer: • 100 mM 4-hydroxyethyl piperazine ethanesulfonic acid, pH 7.5; • 0.1% bovine serum albumin; • 0.01% Triton X-100; • 1 mM dithiothreitol; • 5 mM magnesium chloride; • 10 μM sodium orthovanadate; • 10 μM sodium P-glycerophosphate; • 25 μM ATP; • 1% DMSO (from the compound to be tested); • Substrate Peptide: 1 μM FAM-[…]-NH2 segment, wherein FAM is 5-carboxyfluorescein; • 5 nM CDK4/human cyclin D1.
as §1

CDK4/human cyclin D1, sequence (P11802 whole entry): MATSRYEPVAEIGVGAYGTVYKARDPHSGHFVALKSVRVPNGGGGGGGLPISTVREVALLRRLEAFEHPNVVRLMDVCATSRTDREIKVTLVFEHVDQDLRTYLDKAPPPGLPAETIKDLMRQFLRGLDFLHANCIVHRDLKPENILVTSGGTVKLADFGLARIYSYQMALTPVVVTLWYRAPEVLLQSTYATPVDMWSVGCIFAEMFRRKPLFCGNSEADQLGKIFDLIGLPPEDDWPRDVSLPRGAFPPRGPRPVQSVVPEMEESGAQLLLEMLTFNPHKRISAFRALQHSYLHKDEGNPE
CDK4/human cyclin D1, sequence (P24385 whole entry partner): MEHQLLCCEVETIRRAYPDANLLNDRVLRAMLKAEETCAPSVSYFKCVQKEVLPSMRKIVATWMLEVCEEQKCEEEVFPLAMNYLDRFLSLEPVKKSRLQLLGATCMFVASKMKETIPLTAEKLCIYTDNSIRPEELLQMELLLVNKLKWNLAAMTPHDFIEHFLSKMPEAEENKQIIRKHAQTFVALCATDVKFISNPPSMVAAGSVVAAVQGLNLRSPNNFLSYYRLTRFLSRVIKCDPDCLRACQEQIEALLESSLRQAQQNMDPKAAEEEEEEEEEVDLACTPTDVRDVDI
T1 sequence (Q00534 whole entry): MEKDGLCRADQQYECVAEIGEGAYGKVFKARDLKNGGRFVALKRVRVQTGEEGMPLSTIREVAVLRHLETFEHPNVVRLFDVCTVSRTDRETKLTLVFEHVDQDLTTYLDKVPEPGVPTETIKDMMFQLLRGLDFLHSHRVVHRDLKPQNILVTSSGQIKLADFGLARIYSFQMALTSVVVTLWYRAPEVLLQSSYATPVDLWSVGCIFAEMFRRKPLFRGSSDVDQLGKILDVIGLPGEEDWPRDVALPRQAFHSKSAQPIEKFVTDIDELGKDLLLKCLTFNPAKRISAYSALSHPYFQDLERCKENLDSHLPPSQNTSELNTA
T1 sequence (P30281 whole entry partner): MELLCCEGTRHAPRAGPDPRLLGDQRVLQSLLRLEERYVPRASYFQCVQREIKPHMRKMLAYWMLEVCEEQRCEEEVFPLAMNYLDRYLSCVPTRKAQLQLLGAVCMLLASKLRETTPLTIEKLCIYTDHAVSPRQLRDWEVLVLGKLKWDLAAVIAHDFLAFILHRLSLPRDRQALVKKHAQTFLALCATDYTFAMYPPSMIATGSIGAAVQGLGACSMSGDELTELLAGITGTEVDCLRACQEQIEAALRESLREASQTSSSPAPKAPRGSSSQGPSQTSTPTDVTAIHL

IC50 [1] [nM] | IC50 [2] [nM] | IC50 [3] [nM] | IC50 [4] [nM] | SMILES
101 | 459 | 1 | 1.78 | Cc1nc2c(F)cc(-c3nc(Nc4ccc(N5CCC(N(C)CCO)CC5)cn4)ncc3F)cc2n1C(C)C [Compound 1963]
313 | 126 | 8.6 | 1.4 | Cc1nc2c(F)cc(-c3nc(Nc4ccc(CN5CCC(N(C)CCO)CC5)cn4)ncc3F)cc2n1C(C)C [Compound 1964]
122 | 682 | 1.23 | 0.17 | CNC1CCN(c2ccc(Nc3ncc(F)c(-c4cc(F)c5nc(C)n(C(C)C)c5c4)n3)nc2)CC1 [Compound 1967]
8.2 | 457 | 6.7 | 1.55 | CC(C)n1c(CF)nc2c(F)cc(-c3nc(Nc4ccc(CN5CCC(N(C)C)CC5)cn4)ncc3F)cc21 [Compound 1975]
459 | 1150 | 9.8 | 2.6 | CCN1CCN(Cc2ccc(Nc3ncc(F)c(-c4cc(F)c5nc(CF)n(C(C)C)c5c4)n3)nc2)CC1 [Compound 1978]
163 | 1390 | 4.1 | 0.83 | Cc1nc2c(F)cc(-c3nc(Nc4ccc(CN5CCN(CCO)CC5)cn4)ncc3F)cc2n1C(C)C [Compound 1979]
231 | 344 | 3.9 | 1.25 | CC(C)n1c(CF)nc2c(F)cc(-c3nc(Nc4ccc(N5CCC(N(C)C)CC5)cn4)ncc3F)cc21 [Compound 1984]
128 | 454 | 3 | 0.98 | CCN1CCN(c2ccc(Nc3ncc(F)c(-c4cc(F)c5nc(CF)n(C(C)C)c5c4)n3)nc2)CC1 [Compound 1985]
95 | 573 | 1.8 | 1.2 | Cc1nc2c(F)cc(-c3nc(Nc4ccc(N5CCN(CCO)CC5)cn4)ncc3F)cc2n1C(C)C [Compound 1986]
355 | 345 | 5.9 | 1.2 | Cc1nc2c(F)cc(-c3nc(Nc4ccc(N5CCN(CC(C)O)CC5)cn4)ncc3F)cc2n1C(C)C (centres unmarked) [Compound 1987]
92 | 529 | 1.1 | 0.75 | COCCN1CCN(c2ccc(Nc3ncc(F)c(-c4cc(F)c5nc(C)n(C(C)C)c5c4)n3)nc2)CC1 [Compound 1988]
5.3 | 276 | 4.8 | 1.54 | CC(C)n1c(CF)nc2c(F)cc(-c3nc(Nc4ccc(N5CCC(N(C)CCO)CC5)cn4)ncc3F)cc21 [Compound 1990]
82 | 485 | 8.7 | 0.67 | CCN1CCN(Cc2ccc(Nc3ncc(F)c(-c4cc(F)c5nc(CO)n(C(C)C)c5c4)n3)nc2)CC1 [Compound 1994]
6.2 | 186 | 10.1 | 1.75 | CC(C)n1c(CF)nc2c(F)cc(-c3nc(Nc4ccc(CN5CCC(N(C)CCO)CC5)cn4)ncc3F)cc21 [Compound 1995]
